{
  "source": "patent US20250049928A1",
  "about": "“ANESTHETIC PRODRUGS AND DERIVATIVES THEREOF FOR PROLONGED SENSORY SELECTIVE NERVE BLOCKAGE” (The Board of Trustees of The University of Alabama, priority 2023, published 2025)",
  "key": {"GLUT1": {"target": "GLUT1 (Homo sapiens, UniProt P11166)", "sequence (P11166 whole entry, species assumed)": "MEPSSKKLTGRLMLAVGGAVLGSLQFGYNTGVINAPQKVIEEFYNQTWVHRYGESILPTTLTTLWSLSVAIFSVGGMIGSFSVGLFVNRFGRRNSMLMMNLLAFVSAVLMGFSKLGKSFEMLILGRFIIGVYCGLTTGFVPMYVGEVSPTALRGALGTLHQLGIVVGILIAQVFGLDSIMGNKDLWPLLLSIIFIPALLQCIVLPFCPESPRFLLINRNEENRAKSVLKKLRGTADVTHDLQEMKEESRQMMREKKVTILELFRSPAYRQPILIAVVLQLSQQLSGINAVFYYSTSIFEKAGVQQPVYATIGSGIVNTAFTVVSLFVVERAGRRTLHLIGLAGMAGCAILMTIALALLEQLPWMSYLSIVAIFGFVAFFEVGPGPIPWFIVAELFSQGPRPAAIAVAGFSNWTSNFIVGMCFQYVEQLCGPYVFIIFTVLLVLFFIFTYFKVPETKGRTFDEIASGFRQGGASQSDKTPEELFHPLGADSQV", "conditions": "cited from earlier work"}, "rats [1]": {"test_system": "rats", "conditions": "rat, in vivo"}, "sciatic nerve [2]": {"test_system": "sciatic nerve", "assay": "Rat sciatic nerve block: nociceptive axon blockade (hotplate thermal latency)", "format": "in vivo, Sprague-Dawley rats"}, "sciatic nerve [3]": {"test_system": "sciatic nerve", "assay": "Rat sciatic nerve block: motor axon blockade (weight-bearing test)", "format": "in vivo, Sprague-Dawley rats"}, "Log P": {"assay": "Log P", "conditions": "octanol/water"}, "rats [4]": {"test_system": "rats", "conditions": "rat, in vivo", "remark": "listed apart in the source"}, "GLUT3": {"target": "GLUT3 (Homo sapiens, UniProt P11169)", "sequence (P11169 whole entry, species assumed)": "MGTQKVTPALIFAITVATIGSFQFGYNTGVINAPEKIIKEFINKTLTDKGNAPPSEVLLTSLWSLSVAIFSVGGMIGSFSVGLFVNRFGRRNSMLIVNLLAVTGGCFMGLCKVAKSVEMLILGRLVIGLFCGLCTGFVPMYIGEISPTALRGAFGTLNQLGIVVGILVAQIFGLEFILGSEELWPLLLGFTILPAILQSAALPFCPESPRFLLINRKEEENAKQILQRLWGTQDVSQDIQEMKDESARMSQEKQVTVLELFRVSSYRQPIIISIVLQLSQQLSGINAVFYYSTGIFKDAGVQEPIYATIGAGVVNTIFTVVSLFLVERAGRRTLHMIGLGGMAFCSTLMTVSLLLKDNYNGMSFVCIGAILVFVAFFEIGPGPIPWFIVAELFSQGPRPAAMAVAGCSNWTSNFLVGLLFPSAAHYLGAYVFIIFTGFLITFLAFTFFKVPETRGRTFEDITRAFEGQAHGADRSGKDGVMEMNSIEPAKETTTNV", "conditions": "read-out: Km for GLUT3; cited from earlier work"}, "sciatic nerve [5]": {"test_system": "sciatic nerve", "conditions": "rat, in vivo"}, "[6]": {"test_system": "sciatic nerves and surrounding tissues", "conditions": "rat, in vivo"}, "[7]": {"test_system": "Esterase (from porcine liver)", "conditions": "pig"}, "[8]": {"conditions": "read-out: Km (transporter protein affinity for sugar molecules)"}},
  "note": "Where “and” joins values, the source holds several entries; their conditions need not be identical. Equal values may be shown once. Entries after “also recorded” stand apart in the source; their conditions may differ. Read-outs that look alike come from different tables or passages of the source.",
  "data": [
    {"compound": "O=C1O[C@H]([C@@H](O)CO)C(=O)C1=O", "note": "[DHA, dehydroascorbic acid]", "values": [
      {"measurement": "Km", "setting": "GLUT1; [8]", "result": 1.1, "unit": "mM"}
    ]},
    {"compound": "COc1cc(CNC(=O)CCCC/C=C/C(C)C)ccc1OC[C@H]1OC(O)[C@H](O)[C@@H](O)[C@H]1O", "note": "(stereo partly shown) [Gal-CAP prodrug, galactose-capsaicin prodrug]", "values": [
      {"measurement": "frequency of licking within 5 minutes after injection", "setting": "rats [1]", "result": "1±1.41", "unit": "times"},
      {"measurement": "total duration of licking behavior", "setting": "rats [1]", "result": "4.55 ± 5.77", "unit": "s"}
    ]},
    {"compound": "CCCCN1CCCCC1C(=O)Nc1c(C)cccc1C", "note": "(stereo not shown) [bupivacaine, reference compound]", "values": [
      {"measurement": "successful sensory blockade", "setting": "sciatic nerve [2]; 8.65 mM in 0.3 mL PBS", "result": "failed to achieve a successful block"},
      {"measurement": "mean duration of sensory block", "setting": "sciatic nerve [2]; 17.3 mM in 0.3 mL PBS", "result": "1.75 ± 0.29", "unit": "h"},
      {"measurement": "sensory block success", "setting": "sciatic nerve [2]; 17.3 mM in 0.3 mL PBS", "result": 100, "unit": "%"},
      {"measurement": "duration of motor deficits / motor involvement", "setting": "sciatic nerve [3]; 17.3 mM in 0.3 mL PBS", "result": "1.375 ± 0.48", "unit": "h"}
    ]},
    {"compound": "COc1cc(CNC(=O)CCCC/C=C/C(C)C)ccc1O", "note": "[capsaicin]", "values": [
      {"measurement": "successful analgesic block (thermal paw withdrawal latencies >7 seconds)", "setting": "sciatic nerve [2]; injection doses above 3.28 μmol", "result": 100, "unit": "%"},
      {"measurement": "successful analgesic block (thermal paw withdrawal latencies >7 seconds)", "setting": "sciatic nerve [2]; injection doses above 1 mg, 0.3 mL at left sciatic nerve", "result": 100, "unit": "%"},
      {"measurement": "duration of nociceptive axon block", "setting": "sciatic nerve [2]; injection of 6.56 μmol", "result": "4.0 ± 2.0", "unit": "h"},
      {"measurement": "duration of nociceptive axon blockade", "setting": "sciatic nerve [2]; single injection of 2 mg in 0.3 mL at sciatic nerve", "result": "4 ± 2", "unit": "h"},
      {"measurement": "duration of nociceptive axon blockade", "setting": "sciatic nerve [2]; single injection of 3 mg in 0.3 mL at sciatic nerve", "result": "30 ± 12", "unit": "h"},
      {"measurement": "motor deficits in the injected hind limb", "setting": "sciatic nerve [3]; 0.5-3 mg in 0.3 mL at sciatic nerve", "result": "did not produce any motor deficits"},
      {"measurement": "motor deficits in the injected hind limb", "setting": "sciatic nerve [3]; Example 4, doses in μmol, 0.3 mL PBS", "result": "did not produce any motor deficits"},
      {"measurement": "logP", "setting": "Log P", "result": 3.66},
      {"measurement": "rats that developed acute respiratory distress", "setting": "rats [4]; male, Sprague-Dawley", "result": 75, "unit": "%"},
      {"measurement": "rats that developed contralateral nociceptive axon block", "setting": "rats [4]; male, Sprague-Dawley", "result": 50, "unit": "%"},
      {"measurement": "rats that experienced a seizure", "setting": "rats [4]; male, Sprague-Dawley", "result": 25, "unit": "%"},
      {"measurement": "rats with irreversible nociceptive axon blockade in the injected hind limb", "setting": "rats [4]; male, Sprague-Dawley", "result": 25, "unit": "%"},
      {"measurement": "rats exhibiting at least one systemic adverse effect", "setting": "rats [4]", "result": "all rats"}
    ]},
    {"compound": "O=C[C@H](O)[C@@H](O)[C@@H](O)[C@H](O)CO", "note": "[galactose]", "values": [
      {"measurement": "Km", "setting": "GLUT1; [8]", "result": 15, "unit": "mM"},
      {"measurement": "Km", "setting": "GLUT1; read-out: Km for GLUT1", "result": 17, "unit": "mM"},
      {"measurement": "Km", "setting": "GLUT3", "result": 8.5, "unit": "mM"}
    ]},
    {"compound": "N[C@H]1C(O)O[C@H](CO)[C@@H](O)[C@@H]1O", "note": "(stereo partly shown) [glucosamine]", "values": [
      {"measurement": "Km", "setting": "GLUT1; [8]", "result": 2.5, "unit": "mM"}
    ]},
    {"compound": "galactosamine-fluorescein [Gal-FL]", "values": [
      {"measurement": "mean fluorescent intensity in epineurium/perineurium and inside the nerve", "setting": "sciatic nerve [5]", "result": "significantly higher"}
    ]},
    {"compound": "galactose-capsaicin prodrug", "values": [
      {"measurement": "change of nociceptive axon block duration with increasing glucose dose", "setting": "sciatic nerve [2]; rat, in vivo", "result": "decrease in nociceptive axon block duration; also recorded: significant decrease"},
      {"measurement": "duration of nociceptive axon blockade", "setting": "sciatic nerve [2]; rat, in vivo", "result": "150.0 ± 76.8 h and 234 ± 36 h"},
      {"measurement": "successful analgesic block (thermal paw withdrawal latencies >7 seconds)", "setting": "sciatic nerve [2]; rat, in vivo", "result": 100, "unit": "%"},
      {"measurement": "appearance of surrounding tissues at dissection", "setting": "[6]", "result": "did not appear edematous or discolored"},
      {"measurement": "microscopic examination for myotoxicity or inflammation", "setting": "[6]", "result": "did not reveal significant myotoxicity or inflammation"},
      {"measurement": "toluidine blue stained sciatic nerve sections", "setting": "[6]", "result": "normal in appearance without evidence of demyelination or axonal degeneration"},
      {"measurement": "motor deficits in the injected hind limb", "setting": "sciatic nerve [3]; rat, in vivo", "result": "did not produce any motor deficits"},
      {"measurement": "capsaicin-related side effects (spontaneous pain behavior, contralateral block, irreversible block, seizure, acute respiratory distress)", "setting": "rats [4]", "result": "did not cause any capsaicin-related side effects"}
    ]},
    {"compound": "galacturonic acid-capsaicin prodrug [GalA-CAP prodrug]", "values": [
      {"measurement": "change of nociceptive axon block duration with increasing glucose dose", "setting": "sciatic nerve [2]; rat, in vivo", "result": "significantly reduced with increasing glucose dose"},
      {"measurement": "duration of nociceptive axon blockade", "setting": "sciatic nerve [2]; rat, in vivo", "result": "150.0 ± 76.8 h and 234 ± 37 h and 150 ± 76.84 h"},
      {"measurement": "successful analgesic block (thermal paw withdrawal latencies >7 seconds)", "setting": "sciatic nerve [2]; rat, in vivo", "result": 100, "unit": "%"},
      {"measurement": "time to restoration of full thermal stimulus sensitivity (return to baseline thermal latency)", "setting": "sciatic nerve [2]; rat, in vivo", "result": 13, "unit": "days"},
      {"measurement": "Half-lives", "setting": "[7]", "result": "<10", "unit": "min"},
      {"measurement": "Myotoxicity Score (median; range 0-6)", "setting": "[6]", "result": 0},
      {"measurement": "appearance of surrounding tissues at dissection", "setting": "[6]", "result": "did not appear edematous or discolored"},
      {"measurement": "myotoxicity score, median for all groups", "setting": "[6]", "result": 0},
      {"measurement": "unmyelinated C-fibers / axon diameter by TEM", "setting": "[6]", "result": "not significantly increased"},
      {"measurement": "frequency of licking within 5 minutes after injection", "setting": "rats [1]", "result": "1±0", "unit": "times"},
      {"measurement": "total duration of licking behavior", "setting": "rats [1]", "result": "4.28 ± 5.81", "unit": "s"},
      {"measurement": "motor deficits in the injected hind limb", "setting": "sciatic nerve [3]; rat, in vivo", "result": "did not produce any motor deficits"},
      {"measurement": "capsaicin-related side effects (spontaneous pain behavior, contralateral block, irreversible block, seizure, acute respiratory distress)", "setting": "rats [4]", "result": "did not cause any capsaicin-related side effects"},
      {"measurement": "seizures observed (systemic toxicity)", "setting": "rats [4]", "result": "2 out of 4"}
    ]},
    {"compound": "glucuronic acid-linked bupivacaine [GluA-Bup]", "values": [
      {"measurement": "mean duration of sensory block", "setting": "sciatic nerve [2]; rat, in vivo", "result": "13.0 ± 2.58", "unit": "h"},
      {"measurement": "mean duration of sensory blockade", "setting": "sciatic nerve [2]; rat, in vivo", "result": "3.75 ± 0.50", "unit": "h"},
      {"measurement": "sensory block success", "setting": "sciatic nerve [2]; rat, in vivo", "result": 100, "unit": "%"},
      {"measurement": "successful sensory blockade", "setting": "sciatic nerve [2]; rat, in vivo", "result": 100, "unit": "%"},
      {"measurement": "duration of motor deficits / motor involvement", "setting": "sciatic nerve [3]; rat, in vivo", "result": "1.625 ± 0.25", "unit": "h"},
      {"measurement": "motor deficits", "setting": "sciatic nerve [3]; rat, in vivo", "result": "without any motor deficits"}
    ]},
    {"compound": "glycine-capsaicin prodrug [Gly-CAP prodrug]", "values": [
      {"measurement": "duration of nociceptive axon blockade", "setting": "sciatic nerve [2]; rat, in vivo", "result": "17.33 ± 11.55", "unit": "h"},
      {"measurement": "successful nociceptive axon blockade", "setting": "sciatic nerve [2]; rat, in vivo", "result": 100, "unit": "%"}
    ]}
  ]
}
